Key:
mouse spermatozoa = test: Measuring the [Ca2+]i in spermatozoa (Fluo-4 AM fluorescence); type: cell-based; details: FIG. 1; for [Ca2+]i increases by (change in fluorescent intensity, (F'-F0)/F0): plateau phase 27-30 minutes
Procedure: Spermatozoa are prepared for measuring changes in the intracellular concentration of free calcium ions ([Ca^2]i). Modified HEPES medium (120 mM of NaCl, 2 mM of KCl, 1.2 mM of MgSO4.7H2O, 0.36 mM of NaH2PO4, 15 mM of NaHCO3, 10 mM of HEPES, 5.6 mM of glucose, 1.1 mM of sodium pyruvate, 18.5 mM of sucrose, 100 IU/ml of penicillin, and 100 μg/ml of streptomycin), spermatozoa culture medium, is pre-incubated in incubator with 5% CO2 at 37° C. for 24 hours before using to adjust the medium pH ranges between 7.3 and 7.4. The cauda epididymis is cut into several pieces, incubated in the medium at 37° C. for 20 minutes, put on 1 ml of 75% (v/v) Percoll solution, and centrifuged at 300×g for 30 minutes to isolate higher motility spermatozoa for [Ca^2+]i measurement experiment.
Changes in the [Ca^2+]i in uncapacitated spermatozoa are measured. Spermatozoa (1×10^8 cells per milliliter) is incubated in modified HEPES medium, containing 15 μM of Fluo-4 AM, in the darkness at 37° C. for 45 minutes. Fluo-4 AM is a fluorescent Ca^2+ indicator capable of penetrating cell membranes. Then, the spermatozoa are washed thrice by 100×g centrifugation at room temperature for 5 minutes to remove the residual dye. The sperm cell pellet is suspended in a modified HEPES medium, containing 1.8 mM of CaCl2, and the cell concentration is adjusted to 5×10^6 cells per milliliter. […] The changes of fluorescent intensity are measured with the Synergy H1 Hybrid Multi-Mode Microplate Reader (Bio-Tek, Winooski, Vt., USA) at 37° C. via an excitation wavelength of 485 nm and an emission wavelength of 520 nm. […] Changes in [Ca^2+]i are calculated with the equation (F′−F0)/F0 (%), wherein F′ denotes the fluorescent intensity measured at different time points during the experiment, and F0 denotes the average of fluorescent intensity measured 0 to 5 minutes before adding kisspeptin-10. Last but not least, the average change in the fluorescent intensity during the plateau phase (27˜30 minutes) of [Ca^2+]i is calculated.

spermatozoa = test: IVF test (in vitro fertilization, success fertilization rate); type: cell-based, mouse; details: spermatozoa incubated with 50 μM during capacitation, 2 hours, 37° C.; control group larger than 80%; binds KISS1R; FIG. 2
Procedure: In the in vitro fertilization experiment, spermatozoa isolated from cauda epididymis are incubated in HTF (human tubal fluid) medium (Merck Millipore) at 37° C. for 20 minutes and then diluted the cell concentration to 1×10^6 spermatozoa per milliliter.
The uncapacitated spermatozoa is incubated in HTF medium and then treated with peptide 234 during capacitation step, such that kisspeptin signal effects on final fertilization step is evaluated. The 0.9% saline is added to the control group to substitute for the peptide 234 solution. In detail, spermatozoa (1×10^6 cell per milliliter) are incubated in a capacitation-condition medium with 50 μM peptide 234 or saline at 37° C. for 2 hours. Then, the fertilization process begins with the introduction of cumulus-oocyte complexes (COCs) into the culture medium and incubation at 37° C. for 6 hours. The oocytes are washed thrice and incubated in KSOM+AAs culture medium (potassium simplex optimized medium plus amino acids, Merk Millipore) for 24 hours. The success fertilization rate is calculated according to the ratio of the number of two-cell embryos to the total number of oocytes. […]

## kisspeptin 10: short-chain peptide kisspeptin-10 (SEQ ID NO:6), rodent expressed kisspeptin, purchased from Kelowna international Scientific (YNWNSFGLRY; Rodent expressed kisspeptin-10)
Mouse spermatozoa; mouse spermatozoa treated with 50 μM
  [Ca2+]i increases by (change in fluorescent intensity, (F'-F0)/F0): 85.5±14.4%
Mouse spermatozoa; mouse spermatozoa treated with 100 μM
  [Ca2+]i increases by (change in fluorescent intensity, (F'-F0)/F0): 129.9±24.9%
Mouse spermatozoa; mouse spermatozoa treated with 25, 50 and 100 μM
  [Ca2+]i change (fluorescent intensity), in words: increases

## peptide 234: kisspeptin antagonist peptide 234 (SEQ ID NO:10), binds to KISS1R on the spermatozoa (ANWNGFGWRF; Kisspeptin antagonist peptide 234)
spermatozoa
  success fertilization rate (two-cell embryos / total oocytes): less than 60%
